Assay [1] has as its target T1, Gastrin/cholecystokinin type B receptor (Mus musculus, UniProt P56481).
T1 sequence (P56481 whole entry): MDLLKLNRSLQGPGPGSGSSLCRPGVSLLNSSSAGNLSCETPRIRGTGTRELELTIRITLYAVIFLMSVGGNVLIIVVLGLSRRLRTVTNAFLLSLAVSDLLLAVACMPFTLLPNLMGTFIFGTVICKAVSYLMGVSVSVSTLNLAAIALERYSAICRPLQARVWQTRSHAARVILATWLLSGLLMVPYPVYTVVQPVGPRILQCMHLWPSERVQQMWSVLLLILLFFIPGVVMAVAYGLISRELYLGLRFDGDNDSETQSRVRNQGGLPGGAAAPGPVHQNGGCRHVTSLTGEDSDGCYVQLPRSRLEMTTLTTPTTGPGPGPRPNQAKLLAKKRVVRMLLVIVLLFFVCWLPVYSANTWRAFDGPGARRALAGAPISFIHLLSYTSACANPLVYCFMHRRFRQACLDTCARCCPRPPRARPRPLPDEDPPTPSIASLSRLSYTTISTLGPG
The assay can be described thus: Evaluated for Cholecystokinin type B receptor antagonistic activity in which 20 pM [125I]BH-CCK-8S was used to label CCKB/gastrin binding sites in mouse cortical homogenates.

Assay [2] addresses T2, Gastrin/cholecystokinin type B receptor (Rattus norvegicus) (UniProt P30553).
T2 sequence (whole entry): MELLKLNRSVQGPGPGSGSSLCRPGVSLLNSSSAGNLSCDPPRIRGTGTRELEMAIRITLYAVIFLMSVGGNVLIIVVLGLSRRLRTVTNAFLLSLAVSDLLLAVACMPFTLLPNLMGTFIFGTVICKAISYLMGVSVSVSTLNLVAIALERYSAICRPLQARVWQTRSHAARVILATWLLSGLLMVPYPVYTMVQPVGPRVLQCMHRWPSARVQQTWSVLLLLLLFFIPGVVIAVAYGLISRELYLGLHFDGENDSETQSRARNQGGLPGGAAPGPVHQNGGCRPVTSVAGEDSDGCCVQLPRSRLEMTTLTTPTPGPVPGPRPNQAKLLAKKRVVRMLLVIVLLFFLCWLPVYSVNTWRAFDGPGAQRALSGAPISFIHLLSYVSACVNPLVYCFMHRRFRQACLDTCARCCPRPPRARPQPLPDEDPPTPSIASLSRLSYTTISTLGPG
Kind of assay: Evaluated for Cholecystokinin type B receptor antagonistic activity in isolated lumen-perfused immature rat stomach. It is filed as functional, tissue-based.

Turning to `O=C(O)c1cc(NC(=O)C2Cc3ccccc3CCCCN2C(=O)c2cc3[nH]cnc3cc2C(=O)NCC23CC4CC(CC(C4)C2)C3)cc(C(=O)O)c1` (stereo not given), the half-maximal inhibitory concentration (IC50) (commonly the concentration needed to halve the response being measured) in assay [1] was 5.01 nM. In addition, the pKB – broadly, −log10 of the KB, conventionally taken in molar units – in assay [2] came to 9.13.

In assay [1], `O=C(O)c1cc(NC(=O)[C@H](Cc2ccccc2)NC(=O)c2cc3[nH]cnc3cc2C(=O)NCC23CC4CC(CC(C4)C2)C3)cc(C(=O)O)c1` had an IC50 of 5.25 nM. This compound gave a pKB in assay [2] of 9.08.

In turn, `O=C(O)c1cc(NC(=O)C2Cc3ccccc3CCN2C(=O)c2cc3[nH]cnc3cc2C(=O)NCC23CC4CC(CC(C4)C2)C3)cc(C(=O)O)c1` (stereo not given) gave a concentration for half-maximal inhibition (IC50) in assay [1] of 234 nM. This compound also gave a negative-log KB (pKB) in assay [2] of 7.66.

The compound `O=C(O)c1cc(NC(=O)C2Cc3ccccc3CCCN2C(=O)c2cc3[nH]cnc3cc2C(=O)NCC23CC4CC(CC(C4)C2)C3)cc(C(=O)O)c1` (stereo not given) showed an IC50 in assay [1] of 224 nM. Further, the pKB in assay [2] came to 7.93.

In assay [1], `O=C(O)c1cc(NC(=O)C2Cc3ccccc3CN2C(=O)c2cc3[nH]cnc3cc2C(=O)NCC23CC4CC(CC(C4)C2)C3)cc(C(=O)O)c1` (stereo not given) gave an IC50 of 178 nM. Further, the pKB in assay [2] turned out to be 7.64.
